We go through 14 molecules from patent publication US12427144B2, “Compounds and methods for the targeted degradation of androgen receptor” (Arvinas Operations, Inc., priority 2019, dated 2025).

Molecules are shown by their SMILES.

In this assay the target is T1, Androgen Receptor (AR) (Homo sapiens, UniProt P10275).
T1 construct: endogenous in cells; host or cells: VCaP
T1 sequence (P10275 1-920): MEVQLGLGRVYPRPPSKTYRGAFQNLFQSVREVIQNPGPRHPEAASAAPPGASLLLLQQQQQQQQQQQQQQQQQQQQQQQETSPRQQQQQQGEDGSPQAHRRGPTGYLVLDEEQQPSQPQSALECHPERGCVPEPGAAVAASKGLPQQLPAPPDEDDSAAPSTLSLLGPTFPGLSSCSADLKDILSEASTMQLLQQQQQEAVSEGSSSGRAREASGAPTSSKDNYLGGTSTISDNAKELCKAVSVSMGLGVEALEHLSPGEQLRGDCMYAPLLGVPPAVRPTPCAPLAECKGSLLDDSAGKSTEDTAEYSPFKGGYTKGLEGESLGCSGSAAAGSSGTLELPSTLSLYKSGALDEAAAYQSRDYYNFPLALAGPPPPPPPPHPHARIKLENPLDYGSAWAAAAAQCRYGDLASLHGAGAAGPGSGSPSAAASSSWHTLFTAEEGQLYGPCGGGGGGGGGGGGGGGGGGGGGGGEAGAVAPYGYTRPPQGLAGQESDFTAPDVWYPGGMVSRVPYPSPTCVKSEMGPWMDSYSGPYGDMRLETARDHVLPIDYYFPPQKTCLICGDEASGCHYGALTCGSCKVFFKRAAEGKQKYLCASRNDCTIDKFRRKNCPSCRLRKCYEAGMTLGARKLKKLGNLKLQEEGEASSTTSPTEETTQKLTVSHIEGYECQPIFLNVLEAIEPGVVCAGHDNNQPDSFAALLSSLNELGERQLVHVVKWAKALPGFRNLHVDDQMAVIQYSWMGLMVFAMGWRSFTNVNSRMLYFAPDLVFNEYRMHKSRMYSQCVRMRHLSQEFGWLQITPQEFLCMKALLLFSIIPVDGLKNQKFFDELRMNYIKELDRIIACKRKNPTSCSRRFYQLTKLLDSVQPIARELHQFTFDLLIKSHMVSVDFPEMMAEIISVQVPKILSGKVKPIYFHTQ
Kind of assay: AR immunofluorescence staining, high content imager, VCaP cells. The class given is cell-based. As to conditions: for DC50: AR degradation by immunofluorescence; for Dmax: maximal AR degradation. The method, then: AR Immunofluorescence Staining of Cells for the High Content Imager was performed as follows: Following treatment of the cells with compound (using the central 60 wells of a 96-well plate), media was removed by aspiration, followed by addition of 50 μL per well of 4% paraformaldehyde (PFA) in PBS supplemented with 2 mM MgCl2 and 2 mM CaCl2. Fixed cells were incubated at RT for 15 minutes. For particularly low adherence cell lines (e.g., VCaP), a 2× solution of 8% PFA was added directly to wells instead. Cells were washed once with 200 μL PBS/well. To permeabilize cells 50 μL/well of 0.1% Triton X-100 in PBS was added and incubated for 5 minutes. Cells were washed once with 200 μL PBSS/well. 100 μL/well of Licor Odyssey Blocking Buffer was added for 1 hour at 20° C. Wells were aspirated and AR antibody (1:1000 in Licor Odyssey blocking buffer; 50 μL/well; CST 5153s) was added. Plates were incubated overnight at 4° C. Plates were washed 3 times with 200 EL PBS/well. The appropriate secondary antibody was added (50 μL/well; diluted in Licor Odyssey blocking buffer) and incubated for 1 hour at RT in the dark as prepared below using Anti-rabbit FITC (1:5000; […]) and Phalloidin-Alexafluor 648 (1:500; […]). Cells were washed once with 200 μL PBS/well. 50 μL DAPI or Hoechst 33342 diluted 1:1000 in Licor Odyssey blocking buffer was added to the wells. Cells were washed 3 times with 200 μL PBS/well. The plates were covered with a clear plastic sealer and refrigerated in the dark until ready to analyze. The cells were analyzed using a Molecular Devices IXM high content imager and analyzed using Molecular Devices metaXpress software suite.

Broadly, the DC50 is the midpoint of the concentration-degradation curve. A lower DC50 goes with degradation at low concentration. A word on the Dmax: it is the greatest extent of degradation seen. Lower therefore signals a partial loss of target. On to `CC(C)N(CC1CCN(c2cnc(C(=O)N[C@H]3CC[C@H](Oc4ccc(C#N)c(Cl)c4)CC3)cn2)CC1)[C@H]1C[C@H](Oc2ccc(C(=O)NC3CCC(=O)NC3=O)cc2)C1` (stereo partly shown) [Compound 27, N-[4-(3-chloro-4-cyano-phenoxy)cyclohexyl]-5-[4-[[[3-[4-[(2,6-dioxo-3-piperidyl)carbamoyl]phenoxy]cyclobutyl]-isopropyl-amino]methyl]-1-piperidyl]pyrazine-2-carboxamide], for which the DC50 is less than 1 nM and the Dmax is not below 70%.
The like results for `N#Cc1ccc(O[C@H]2CC[C@H](NC(=O)c3ccc(N4CCC(CN5CCN(c6ccc(C(=O)NC7CCC(=O)NC7=O)nn6)CC5)CC4)nn3)CC2)cc1Cl` (stereo partly shown) [Compound 28, N-[4-(3-chloro-4-cyano-phenoxy)cyclohexyl]-6-[4-[[4-[6-[(2,6-dioxo-3-piperidyl)carbamoyl]pyridazin-3-yl]piperazin-1-yl]methyl]-1-piperidyl]pyridazine-3-carboxamide] were, in that order, less than 1 nM and not below 70%.
The like results for `N#Cc1ccc(O[C@H]2CC[C@H](NC(=O)c3ccc(N4CCC(CN5CCN(c6cccc(C(=O)NC7CCC(=O)NC7=O)c6)CC5)CC4)nn3)CC2)cc1Cl` (stereo partly drawn) [Compound 29, N-((1R,4R)-4-(3-chloro-4-cyanophenoxy)cyclohexyl)-6-(4-((4-(3-((2,6-dioxopiperidin-3-yl)carbamoyl)phenyl)piperazin-1-yl)methyl)piperidin-1-yl)pyridazine-3-carboxamide] were, in that order, less than 1 nM and less than 50%.
The like results for `N#Cc1ccc(O[C@H]2CC[C@H](NC(=O)c3ccc(N4CCC(CN5CCN(c6ccc(C(=O)NC7CCC(=O)NC7=O)cn6)CC5)CC4)nn3)CC2)cc1Cl` (stereo partly drawn) [Compound 30, N-((1R,4R)-4-(3-chloro-4-cyanophenoxy)cyclohexyl)-6-(4-((4-(5-((2,6-dioxopiperidin-3-yl)carbamoyl)pyridin-2-yl)piperazin-1-yl)methyl)piperidin-1-yl)pyridazine-3-carboxamide] were, in that order, less than 1 nM and not below 70%.
Molecule `CN(C(=O)c1ccc(N2CCN(CC3CCN(c4ccc(C(=O)N[C@H]5CC[C@H](Oc6ccc(C#N)c(Cl)c6)CC5)nn4)CC3)CC2)cc1F)C1CCC(=O)NC1=O` (stereo partly drawn) [Compound 31, N-((1R,4R)-4-(3-chloro-4-cyanophenoxy)cyclohexyl)-6-(4-((4-(4-((2,6-dioxopiperidin-3-yl)(methyl)carbamoyl)-3-fluorophenyl)piperazin-1-yl)methyl)piperidin-1-yl)pyridazine-3-carboxamide] came in with a DC50 of less than 1 nM and a Dmax of 50 to 70%.
The like results for `CCN(C(=O)c1ccc(N2CCN(CC3CCN(c4ccc(C(=O)N[C@H]5CC[C@H](Oc6ccc(C#N)c(Cl)c6)CC5)nn4)CC3)CC2)cc1)C1CCC(=O)NC1=O` (stereo partly drawn) [Compound 32, N-((1R,4R)-4-(3-chloro-4-cyanophenoxy)cyclohexyl)-6-(4-((4-(4-((2,6-dioxopiperidin-3-yl)(ethyl)carbamoyl)phenyl)piperazin-1-yl)methyl)piperidin-1-yl)pyridazine-3-carboxamide] were, in that order, not below 100 nM and less than 50%.
For `Cc1cc(O[C@H]2C(C)(C)[C@H](NC(=O)c3ccc(N4CCC(CN5CCN(c6cnc(C(=O)N[C@H]7CCC(=O)NC7=O)cn6)CC5)CC4)cc3)C2(C)C)cc(C)c1C#N` [Compound 33, 5-[4-[[1-[4-[[3-(4-cyano-3,5-dimethyl-phenoxy)-2,2,4,4-tetramethyl-cyclobutyl]carbamoyl]phenyl]-4-piperidyl]methyl]piperazin-1-yl]-N-[(3S)-2,6-dioxo-3-piperidyl]pyrazine-2-carboxamide], the 50% degradation concentration (DC50) was less than 1 nM and the Dmax is not below 70%.
For the molecule `COc1cc(O[C@H]2C(C)(C)[C@H](NC(=O)c3ccc(N4CCC5(CC4)CN([C@H]4C[C@H](Oc6ccc(C(=O)N[C@H]7CCC(=O)NC7=O)c(OC)c6)C4)CCO5)cc3)C2(C)C)ccc1C#N` [Compound 34, 4-[3-[9-[4-[[3-(4-cyano-3-methoxy-phenoxy)-2,2,4,4-tetramethyl-cyclobutyl]carbamoyl]phenyl]-1-oxa-4,9-diazaspiro[5.5]undecan-4-yl]cyclobutoxy]-N-[(3S)-2,6-dioxo-3-piperidyl]-2-methoxy-benzamide], the half-maximal degradation concentration (DC50) is less than 1 nM and the greatest degradation seen (Dmax) is not below 70%.
The like results for `COc1cc(O[C@H]2C[C@H](N3CCOC4(CCN(c5ccc(C(=O)N[C@H]6C(C)(C)[C@H](Oc7cc(C)c(C#N)c(C)c7)C6(C)C)cc5)CC4)C3)C2)ccc1C(=O)N[C@H]1CCC(=O)NC1=O` [Compound 35, 4-[3-[9-[4-[[3-(4-cyano-3,5-dimethyl-phenoxy)-2,2,4,4-tetramethyl-cyclobutyl]carbamoyl]phenyl]-1-oxa-4,9-diazaspiro[5.5]undecan-4-yl]cyclobutoxy]-N-[(3S)-2,6-dioxo-3-piperidyl]-2-methoxy-benzamide] were, in that order, less than 1 nM and not below 70%.
For the molecule `CC1(C)[C@H](NC(=O)c2ccc(C#CC3CCN(C4CCN(c5ccc(C(=O)N[C@H]6CCC(=O)NC6=O)c(F)c5)CC4)CC3)cc2)C(C)(C)[C@H]1Oc1ccc(C#N)c(Cl)c1` [Compound 36, N-[(3S)-2,6-dioxopiperidin-3-yl]-2-fluoro-4-{4-[2-(4-{[(1r,3r)-3-(3-chloro-4-cyanophenoxy)-2,2,4,4-tetramethylcyclobutyl]carbamoyl}phenyl)ethynyl]-[1,4′-bipiperidin]-1′-yl}benzamide], the DC50 was less than 1 nM and the greatest degradation seen (Dmax) was not below 70%.
The like results for `COc1cc(O[C@H]2C(C)(C)[C@H](NC(=O)c3ccc(N4CCC(CN5CCN(c6cnc(C(=O)N[C@H]7CCC(=O)NC7=O)cn6)CC5)CC4)cc3)C2(C)C)ccc1C#N` [Compound 37, 5-[4-[[1-[4-[[3-(4-cyano-3-methoxy-phenoxy)-2,2,4,4-tetramethyl-cyclobutyl]carbamoyl]phenyl]-4-piperidyl]methyl]piperazin-1-yl]-N-[(3S)-2,6-dioxo-3-piperidyl]pyrazine-2-carboxamide] were, in that order, less than 1 nM and not below 70%.
The like results for `COc1cc(O[C@H]2C(C)(C)[C@H](NC(=O)c3ccc(N4CCC(CN5CCN(c6cnc(C(=O)N[C@H]7CCC(=O)NC7=O)nc6)CC5)CC4)cc3)C2(C)C)ccc1C#N` [Compound 39, 5-(4-((1-(4-(((1r,3r)-3-(4-cyano-3-methoxyphenoxy)-2,2,4,4-tetramethylcyclobutyl)carbamoyl)phenyl)piperidin-4-yl)methyl)piperazin-1-yl)-N—((S)-2,6-dioxopiperidin-3-yl)pyrimidine-2-carboxamide] were, in that order, less than 1 nM and not below 70%.
The like results for `COc1cc(O[C@H]2C(C)(C)[C@H](NC(=O)c3ccc(N4CCC(CN5CCN(c6ccc(C(=O)N[C@H]7CCC(=O)NC7=O)nc6)CC5)CC4)cc3)C2(C)C)ccc1C#N` [Compound 40, 5-[4-[[1-[4-[[3-(4-cyano-3-methoxy-phenoxy)-2,2,4,4-tetramethyl-cyclobutyl]carbamoyl]phenyl]-4-piperidyl]methyl]piperazin-1-yl]-N-[(3S)-2,6-dioxo-3-piperidyl]pyridine-2-carboxamide] were, in that order, less than 1 nM and not below 70%.
The molecule `Cc1cc(O[C@H]2C(C)(C)[C@H](NC(=O)c3ccc(N4CCC(CN5CCN(c6ccc(C(=O)N[C@H]7CCC(=O)NC7=O)nc6)CC5)CC4)cc3)C2(C)C)cc(C)c1C#N` [Compound 41, 5-[4-[[1-[4-[[3-(4-cyano-3,5-dimethyl-phenoxy)-2,2,4,4-tetramethyl-cyclobutyl]carbamoyl]phenyl]-4-piperidyl]methyl]piperazin-1-yl]-N-[(3S)-2,6-dioxo-3-piperidyl]pyridine-2-carboxamide] showed a DC50 of less than 1 nM and a Dmax not below 70%.
